Assay results: patent US8829021B2, “Treatment of pediatric tumors” (Sigma-Tau Industrie Farmaceutiche Riunite S.p.A., priority 2007, dated 2014)
Where “and” joins values, the source holds several entries; their conditions need not be identical. Identical values can stand only once.

Legend:
[1] = tested on: TE-671 (rhabdomyosarcoma); test: In vivo antitumoral activity, TE-671 rhabdomyosarcoma xenograft; set-up: species or system nude athymic mice (human tumor xenograft); conditions: 30 mg/kg i.v., q4dx4
Description: (§1) Exponentially growing tumor cells were injected s.c. into nude athymic mice. The number of tumor cells was previously chosen by a growth curve. […] Animals were housed under a light-dark cycle, keeping temperature and humidity constant. Parameters of the animal rooms were assessed as follows: 22±2° C. temperature, 55±10% relative humidity, about 15-20 filtered air changes/hour and 12 hour circadian cycle of artificial light (7 a.m., 7 p.m.). At request, the environmental conditions were monitored and the data are retained in Animal Housing Archives. Drinking water was supplied ad libitum. Each mouse was offered daily a complete pellet diet (GLP 4RF21, Mucedola) throughout the study. The analytical certificates of animal food and water are retained at Sigma-Tau premises. All animals were weighed before starting the experiment and were subdivided into the different dosage groups.
(§2) Tumor growth was followed by biweekly measurements of tumor diameters with a Vernier caliper. Tumor volume (TV, mm^3) was calculated as: [length (mm)×width (mm)^2]/2, where the width and the length are the shortest and the longest diameters of each tumor, respectively.
(§3) The efficacy of the drug treatment was assessed as tumor volume inhibition (TVI %) in treated versus control mice, calculated as: 100−[(mean tumor volume of treated animals/mean tumor volume of control animals)×100].

[2] = tested on: PFSK (primitive neuroectodermal tumors/PNET); test: In vivo antitumoral activity, PFSK primitive neuroectodermal tumor (PNET) xenograft; set-up: species or system nude athymic mice (human tumor xenograft); conditions: 30 mg/kg i.v., q4dx4
Description: as §1, §2, §3

[3] = tested on: SK-N-AS (neuroblastoma); test: In vivo antitumoral activity, SK-N-AS neuroblastoma xenograft; set-up: species or system nude athymic mice (human tumor xenograft); conditions: SK-N-AS xenograft s.c. in nude mice; 30 mg/kg i.v., q4dx4
Description: as §1, §2, §3

[4] = tested on: human pediatric tumor xenograft models; test: In vivo antitumoral activity on different pediatric tumor xenograft models (overall); set-up: species or system nude athymic mice (human tumor xenograft); conditions: all models, compared with CPT-11; 30 mg/kg i.v., q4dx4
Description: (§4) The antitumor effect was evaluated against different human pediatric tumor models: SK-ND-AS (neuroblastoma); PSFK (primitive neuroectodermal tumors/PNET); TE-671 (rhabdomyosarcoma). ST 1968 was evaluated in comparison to CPT-11 (irinotecan) by intravenously delivery of 30 mg/10 ml/kg for ST1968 and 50 mg/10 ml/kg for CPT-11 according to the schedule q4dx4.
(§5) Exponentially growing tumor cells were injected s.c. into nude athymic mice. The number of tumor cells was previously chosen by a growth curve. Mice were housed inside cages of makrolon (33.2×15×13 cm) with stainless steel cover-feed and sterilized and dust-free bedding cobs. Animals were housed under a light-dark cycle, keeping temperature and humidity constant. Parameters of the animal rooms were assessed as follows: 22±2° C. temperature, 55±10% relative humidity, about 15-20 filtered air changes/hour and 12 hour circadian cycle of artificial light (7 a.m., 7 p.m.). At request, the environmental conditions were monitored and the data are retained in Animal Housing Archives. Drinking water was supplied ad libitum. […]
Tumor growth was followed by biweekly measurements of tumor diameters with a Vernier caliper. Tumor volume (TV, mm^3) was calculated as: [length (mm)×width (mm)^2]/2, where the width and the length are the shortest and the longest diameters of each tumor, respectively. […]

[5] = Toxicity of the drug treatments in tumor-bearing mice; format: in vivo, nude athymic mice; conditions: treatment i.v., q4dx4
Description: as §4, §5
The toxicity of the drug treatments was determined as: body weight loss percent (% BWL max)=100−(mean BWday x/mean BWday 1×100), where BWx is the mean BW at the day of maximal loss during the treatment and BW1 is the mean BW on the 1st day of treatment.

CC[C@@]1(O)C(=O)OCc2c1cc1n(c2=O)Cc2c-1nc1ccccc1c2/C=N\OCCN [ST1968, 7-(2-amino)ethoxyiminomethylcamptothecin]
TVI % (tumor volume inhibition) ([1]; TE-671 xenograft s.c. in nude mice, 30 mg/kg): 100% and 99% | complete responses (in words) ([1]; rhabdomyosarcoma model): high rate of complete responses | TVI % (tumor volume inhibition) ([2]; PFSK xenograft s.c. in nude mice, 30 mg/kg): 99% and 100% | complete responses (in words) ([2]; PNET model): high rate of complete responses | TVI % (tumor volume inhibition) [3]: 98% | antitumor activity / complete tumor regressions (in words) [4]: appreciable rate of complete tumor regressions in all models | tolerability / signs of acute or delayed toxicity (in words) [5]: generally well tolerated by mice with no signs of acute or delayed toxicity
